Usually melting point stands for the temperature of the solid-liquid transition.

For the compound `O=C(c1ccccc1)c1c[nH]c2ccc(OCc3ccc4ccccc4n3)cc12`, the melting point was in the range of 214 to 216 °C.
Next, `CCC1c2cccn2-c2ccc(Cl)cc2N1S(=O)(=O)c1ccc(O)c(C)c1` (centres undefined): 170 to 172 °C; `CCCCOc1cc2c(c3c1OC(C)(C)C3)C(c1ccccc1)=NC(C)(C)C2`: 99 to 101 °C.
With `CC(C)[C@H](NC(=O)[C@@H](C)c1ccc(Nc2nc(C(F)(F)F)cs2)cc1)C(=O)O`, the melting point fell in the range of 99 to 101 °C.
In turn, `COc1cc(COc2nn(C)cc2C=O)ccc1OCc1nc(-c2ccccc2)oc1C` came in with a melting point of 123 to 124 °C.
The value for `COc1ccc(C(=O)O)c2c1OCCO2` was 224 to 226 °C; that for `CC(C)CN(CC(C)C)C(=O)c1ccc(F)c([N+](=O)[O-])c1` was 47 °C; that for `COc1cc(O)c(C(=O)C=Cc2cccnc2)c(OC)c1` was 158 °C.
The value for `CCOc1c(CCl)c(CCl)c(OCC)c2ccccc12` was 110 °C; that for `CC(C)Oc1c(C(N)=O)n(C)c2ccc(OCc3ccccc3)cc12` was 164 to 166 °C.
Next, `CC1=Nc2ccccc2CN1C1CCC(=O)NC1=O` (centres undefined): 78 to 85 °C; `CNc1cccc2c1nc(-c1c(F)cccc1F)n2Cc1c(F)cccc1F`: 194 to 195 °C; `CCNC(=S)OCCOc1ccc(Oc2ccc(F)cc2)cc1`: 73 to 75 °C.
The compound `O=C(NCc1ccc(Cl)cc1)c1cnc2c(I)cc(CN3CCOCC3)cc2c1O` came in with a melting point of 230 to 233 °C.
For `N#Cc1ccc(NC(=O)CCC2CCCC(=O)O2)cc1` (centres undefined), the melting point lay within 145 to 148 °C.
For the compound `O=C(C(CCCl)c1ccccc1)N1CCCCCC1` (centres undefined), the melting point was 50 to 53 °C.
In turn, `CN(c1cc2ccccc2s1)c1nc(=O)c2cccnc2s1` returned a melting point of 220 to 221 °C.
The value for `Nc1ccc(OC[C@@H]2CCCN2c2ccc3ccccc3n2)cc1` was 138 to 140 °C; that for `CC(=O)c1nc2cc(Cl)ccc2cc1OCc1ccccc1` was 76 to 77 °C; that for `COc1ccc(C(N2CCN(c3ncccn3)CC2)N2CCCC2=O)cc1` (centres undefined) was 166 to 170 °C.
The value for `CCOC(=O)C1OC1c1ccc(OC)cc1` (centres undefined) was 40 to 43 °C; that for `CCOCn1c(Sc2ccc(Cl)c(Cl)c2)cc(C#N)c1-c1ccc(Cl)cc1` was 95 to 97 °C.
In the case of `CCCC(=O)c1cc2c(=O)c(C(=O)O)cn(CC)c2cc1C`, the melting point is 208 to 209 °C.
The value for `CC(=O)Oc1cc([N+](=O)[O-])cc([N+](=O)[O-])c1OC(C)=O` was 115 to 117 °C; that for `COc1ccc2c(c1)CN(C=O)N=C2Cc1c(Cl)cncc1Cl` was 165 to 167 °C; that for `CNC1CCN(c2c(F)c(N)c3c(=O)c(C(=O)O)cn(C4CC4)c3c2C)C1` (centres undefined) was 200 to 202 °C.
Next, `NCc1c(Cc2ccccc2)nc2ccc(OCC(N)=O)cc2c1-c1ccccc1`: 180 to 182 °C; `Cn1cc(-c2cc3cccnc3[nH]2)c2cc(C(=O)NC(CO)CO)ccc21`: 178 to 179 °C.
Next, `CC(C)SN(C)C(=O)Nc1ccc(Cl)c(Cl)c1`: 65 °C; `Cc1ccc2cc(NC(=O)c3cccc(CSc4cnccn4)c3)ccc2n1`: 133 to 135 °C; `COc1cccc(NC(=O)NC2N=C(C)c3cccc(C)c3N(CC(=O)N3CC4CCC(CC4)C3)C2=O)c1` (centres undefined): 170 to 171 °C.
Take `CC(C)c1ccc(-n2nc(C(C)(C)C)cc2NC(=O)c2cncc3cc(Oc4cc(N)ncn4)ccc23)cc1`: the melting point is 131 to 133 °C.
Compound `COc1ccc(Cl)c(Oc2c(C)nc(N3CCOCC3)nc2Cl)c1` displayed a melting point of 134 °C.
Next, `CCCCCC1=C(CCCCC)CC(CNC(=O)Nc2c(C(C)C)cccc2C(C)C)SC1` (centres undefined): 65 to 67 °C.
The value for `CCOC(=O)C1C(=O)Nc2ccccc2SC1c1ccccc1` (centres undefined) was 199 °C; that for `C=C(C)C(=O)OCCOc1ccc(/C=C/C(=O)OC)cc1` was 81 to 82 °C; that for `CC(C)(C)c1cc(CCc2ccccc2NC(=O)NC2CCN(Cc3ccccc3)CC2)cc(C(C)(C)C)c1O` was 79 to 81 °C.
Next, `COc1ccc(-c2nc(N3CCOCC3)c3sc(CN(C)c4ncc(C(=O)NO)cn4)cc3n2)cn1`: 177 to 180 °C.
For the compound `COc1ccc2c(c1)C(CC#N)C(=O)CC2` (centres undefined), the melting point was 97 to 99 °C.
The value for `S=c1nc(-c2cc(Cl)cc(Cl)c2)[nH]n1Cc1ccccc1` was 205 to 212 °C; that for `CCOC(=O)C1=C(C)NN=C(CC)C1c1ccc([N+](=O)[O-])cc1` (centres undefined) was 141 °C; that for `CCN(CC)CC(O)CNC(=O)c1c(OCc2ccccc2)c2ccccc2n1-c1ccccc1` (centres undefined) was 80 to 81 °C.
The value for `Cc1ccc(S(=O)(=O)N2[C@@H](c3nnn(C)n3)CC[C@H]2c2ccc(F)cc2)cc1` (racemic) was 150 °C; that for `COC(=O)C1=C(Nc2ccccc2N)CSC1` was 101 °C; that for `NCCCCCCC(=O)Nc1cccc(C(=O)NCCC(=O)O)c1` was 236 °C.
Next, `Cn1c(Oc2ccc(Cl)c(F)c2)nc2c(-c3cccc(C(=O)O)c3)cccc21`: 283 to 284 °C; `CCCc1nn(C)c2c(=O)[nH]c(Cc3ccc(O)cc3)nc12`: 260 °C.
Take `O=S(=O)(Nc1ccc(C2COc3cc(O)c(O)cc3C2)cc1)c1ccccc1` (centres undefined): the melting point lay within 152 to 154 °C.
For `O=C1N(Cc2ccc(F)cc2Cl)c2ccccc2C12COc1cc3c(cc12)OCO3` (centres undefined), the melting point was in the range of 174 to 175 °C.
In the case of `CC1CCC2C3CCC4CC(O)CCC4(C)C3C(N(C)C)CC12C` (centres undefined), the melting point lay in the range of 150 to 156 °C.
Next, `CCn1cc(C(=O)NCc2ccc(Cl)cc2)c(=O)c2cc(C#CCO)sc21`: 217 to 219 °C; `O=C(O)Cc1cccc(NC(=O)NC2C(=O)N(CC(=O)N3CCCC3)c3ccccc3N(c3ccccc3F)C2=O)c1` (centres undefined): 197 to 199 °C.
Next, `CCCC(=O)Nc1cccc2c1C(=O)N(C1CCC(=O)NC1=O)C2=O` (centres undefined): 171 to 173 °C; `CCOCc1nc2c(N)nc3cc(OCC(=O)N4CCOCC4)ccc3c2n1CC(C)(C)O`: 209 to 211 °C.
The value for `CCCCN(C(=O)C(C)C)c1ccc(-c2ccccc2)o1` was 87 °C; that for `CN1CCN(c2ccc(N)cc2C(F)(F)F)CC1` was 121 to 123 °C.
As for `CS(=O)(=O)c1ccc(-c2nn(Cc3ccccc3)c(=O)cc2-c2ccc(F)cc2)cc1`, the melting point was found to be 188 °C.
`CC(C)c1ccc(C(=O)NC(C)c2sccc2Br)cc1` (centres undefined): the melting point amounted to 133 °C.
The compound `COc1cccc(OC)c1-c1cc(C(=O)NCC(=O)O)nn1-c1ccc(C(=O)N(C)CCCN(C)C)cc1C(C)C` yielded a melting point of 160 °C.
As for `Nc1nc2c(ncn2COC(CC(=O)OC23CC4CC(CC(C4)C2)C3)CC(=O)OC23CC4CC(CC(C4)C2)C3)c(=O)[nH]1` (centres undefined), the melting point is 283 to 285 °C.
Turning to `CCCCSc1ccc2[nH]c(=O)oc(=O)c2c1`, the melting point fell in the range of 196 to 200 °C.
The value for `CCOC(=O)c1cnc(CC)nc1NCc1ccc(-c2ccccc2-c2nnnn2C(c2ccccc2)(c2ccccc2)c2ccccc2)cc1` was 134 to 136 °C.
The value for `CSCc1cc(=O)c2ccc(OCc3ccccc3)c(C)c2o1` was 110 to 114 °C; that for `COCCCN1CCC(CNC(=O)c2cc(Cl)c(N)nc2OC)CC1` was 103 °C; that for `CCOC(=O)COC(=O)c1cc(NC(=O)OCc2ccccc2)ccc1OCC(=O)OCC` was 77 to 78 °C.
The value for `CCc1cn(C2CC(O)C(CCCNC(=O)Cc3c(Cl)cccc3Cl)O2)c(=O)[nH]c1=O` (centres undefined) was 227 to 229 °C.
`COc1cccc2c1CCC(C#N)C2=O` (centres undefined) showed a melting point of 120 to 122 °C.
The value for `CCc1nc(-n2ccnc2)c2ccccc2c1Cl` was 115 °C; that for `CCOC(=O)c1cnc2cc(Br)c(F)cc2c1O` was more than 280 °C; that for `COC(=O)C1=C(C)N(C)C(C)=C(C(=O)OC)C1c1ccccc1` was 151 to 153 °C.
As for `CCOC(=O)/C=C/c1cn(-c2ccc(C(F)(F)F)cn2)nc1C`, the melting point was in the range of 131 to 132 °C.
Next, `CC(=O)c1cnn2ccccc12`: 96 to 97 °C.
`C1=CCN(C(c2ccccc2)c2ccccc2)C1` came in with a melting point of 90 to 91 °C.
Consider `C#CCC(=NO)C1=CCCN(C)C1`, for which the melting point was in the range of 55 to 57 °C.
`O=C1CCc2ccc(OCCCCN3CCN(c4cccc5cc(Cl)ccc45)CC3)nc2N1` returned a melting point of 215 to 216 °C.
The value for `CC(C)c1cc2cc([N+](=O)[O-])ccc2o1` was 73 °C; that for `COc1ccc(CC(C(N)=O)S(C)(=O)=O)cc1C(=O)NCc1ccc(C(F)(F)F)cc1` (centres undefined) was 219 to 220 °C; that for `COCCOCCOCCOc1cc([N+](=O)[O-])c([N+](=O)[O-])cc1OCCOCCOCCOC` was 43 to 45 °C.
Take `Clc1ccc2c(c1)C(Br)Cn1cccc1S2` (centres undefined): the melting point was 106 to 107 °C.
Regarding `OCc1cccc(-c2coc(-c3cn([C@H]4CN5CCC4CC5)nn3)c2)c1`, the melting point was determined as 212 °C.
As for `COc1cccc(SCCC(=O)O)c1F`, the melting point was 72 to 74 °C.
Next, `COc1ccc2cc(C=NNC(N)=O)ccc2c1`: 218 to 219 °C.
The value for `CC1(C)SC2C(NC(=O)CNC(=O)c3ccccc3)C(=O)N2C1c1nnn[nH]1` (centres undefined) was 85 to 93 °C; that for `COC(=O)c1c(Cl)cc(Cl)cc1NC(=O)CSc1ccccc1Cl` was 98 to 99 °C; that for `O=C(O)c1ncn2c(C(F)(F)F)cc(-c3ccc(C(F)(F)F)cc3)nc12` was 231 °C.
With `Cc1nc(-n2ccc(O)cc2=O)sc1C(=O)NCCC1CC1`, the melting point was in the range of 234 to 236 °C.
Next, `ClC1(CBr)C=CC=CN1` (centres undefined): 40 to 43 °C; `Cc1cc(C=NO)ccc1C(=O)NCc1ccccn1`: 160 to 161 °C.
The value for `Cc1cccc(C(=O)Nc2cccc(C(F)(F)F)c2)c1NCc1ccncc1` was 94 to 98 °C.

These data come from a melting point compilation (Tetko et al.; mined from patent text by program, amines drawn as free bases though some values may be those of a salt).
